Holding throughout (assay type): biochemical
The target in one test is PI3Kα (Homo sapiens, UniProt P42336). Description: PI3K-alpha fluorescence polarization assay. The conditions noted are these: read-out: PI3Kα Median IC50.
A further test has as its target PI3Kγ (Homo sapiens, UniProt P48736). Description: PI3K-gamma fluorescence polarization assay. The conditions noted are these: read-out: PI3Kγ Median IC50.
For another test, the target named is mTOR (Homo sapiens, UniProt P42345). In words: mTOR enzyme assay (DELFIA format, His6-S6K substrate). Conditions: read-out: mTOR Kinase Median IC50.

Chain of PI3Kα (P42336 whole entry, species assumed): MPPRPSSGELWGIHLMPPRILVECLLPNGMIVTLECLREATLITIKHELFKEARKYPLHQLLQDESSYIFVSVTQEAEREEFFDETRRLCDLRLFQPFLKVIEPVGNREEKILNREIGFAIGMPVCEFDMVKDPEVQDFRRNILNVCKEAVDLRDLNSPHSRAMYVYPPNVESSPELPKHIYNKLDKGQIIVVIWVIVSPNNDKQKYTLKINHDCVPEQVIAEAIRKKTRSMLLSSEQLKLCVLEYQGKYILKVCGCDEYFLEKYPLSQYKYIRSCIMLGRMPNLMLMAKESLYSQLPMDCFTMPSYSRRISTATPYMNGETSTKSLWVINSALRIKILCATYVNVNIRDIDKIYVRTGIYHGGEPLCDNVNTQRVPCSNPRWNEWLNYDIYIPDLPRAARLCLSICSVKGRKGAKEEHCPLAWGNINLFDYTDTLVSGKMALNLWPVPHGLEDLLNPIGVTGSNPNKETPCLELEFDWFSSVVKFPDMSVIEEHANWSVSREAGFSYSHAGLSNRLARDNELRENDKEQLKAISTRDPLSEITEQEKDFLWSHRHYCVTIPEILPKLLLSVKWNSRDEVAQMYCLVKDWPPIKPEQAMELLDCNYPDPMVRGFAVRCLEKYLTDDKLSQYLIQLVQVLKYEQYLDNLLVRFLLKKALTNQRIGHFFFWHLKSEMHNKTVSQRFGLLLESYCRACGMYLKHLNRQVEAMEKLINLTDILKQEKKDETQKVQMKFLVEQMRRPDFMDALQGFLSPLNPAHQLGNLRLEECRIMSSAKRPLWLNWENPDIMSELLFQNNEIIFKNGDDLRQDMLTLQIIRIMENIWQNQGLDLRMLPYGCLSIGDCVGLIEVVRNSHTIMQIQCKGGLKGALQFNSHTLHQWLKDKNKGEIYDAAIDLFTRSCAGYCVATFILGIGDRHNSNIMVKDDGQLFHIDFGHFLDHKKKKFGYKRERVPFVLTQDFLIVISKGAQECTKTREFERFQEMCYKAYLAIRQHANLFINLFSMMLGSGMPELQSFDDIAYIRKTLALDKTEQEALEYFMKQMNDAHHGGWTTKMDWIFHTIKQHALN
Chain of PI3Kα (P27986 whole entry partner, species assumed): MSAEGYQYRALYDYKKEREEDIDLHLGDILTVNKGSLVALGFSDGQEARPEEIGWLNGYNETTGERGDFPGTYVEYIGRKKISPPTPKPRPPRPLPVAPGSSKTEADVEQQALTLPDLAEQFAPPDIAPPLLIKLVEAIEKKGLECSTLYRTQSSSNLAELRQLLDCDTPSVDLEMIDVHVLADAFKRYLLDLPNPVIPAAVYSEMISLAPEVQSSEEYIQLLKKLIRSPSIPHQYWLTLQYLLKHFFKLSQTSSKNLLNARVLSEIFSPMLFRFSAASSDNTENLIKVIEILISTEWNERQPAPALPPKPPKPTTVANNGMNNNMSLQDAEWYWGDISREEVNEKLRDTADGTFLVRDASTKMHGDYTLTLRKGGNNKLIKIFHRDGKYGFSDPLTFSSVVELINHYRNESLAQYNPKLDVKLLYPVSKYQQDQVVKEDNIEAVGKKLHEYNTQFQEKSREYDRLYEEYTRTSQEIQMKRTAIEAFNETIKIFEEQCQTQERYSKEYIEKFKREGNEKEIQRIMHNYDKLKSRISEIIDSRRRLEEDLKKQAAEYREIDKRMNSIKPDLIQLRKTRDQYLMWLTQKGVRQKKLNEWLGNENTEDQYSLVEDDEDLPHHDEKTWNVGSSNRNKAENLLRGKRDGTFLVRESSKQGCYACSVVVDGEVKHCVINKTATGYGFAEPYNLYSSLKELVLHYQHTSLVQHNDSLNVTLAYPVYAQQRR
Chain of PI3Kγ (P48736 whole entry, species assumed): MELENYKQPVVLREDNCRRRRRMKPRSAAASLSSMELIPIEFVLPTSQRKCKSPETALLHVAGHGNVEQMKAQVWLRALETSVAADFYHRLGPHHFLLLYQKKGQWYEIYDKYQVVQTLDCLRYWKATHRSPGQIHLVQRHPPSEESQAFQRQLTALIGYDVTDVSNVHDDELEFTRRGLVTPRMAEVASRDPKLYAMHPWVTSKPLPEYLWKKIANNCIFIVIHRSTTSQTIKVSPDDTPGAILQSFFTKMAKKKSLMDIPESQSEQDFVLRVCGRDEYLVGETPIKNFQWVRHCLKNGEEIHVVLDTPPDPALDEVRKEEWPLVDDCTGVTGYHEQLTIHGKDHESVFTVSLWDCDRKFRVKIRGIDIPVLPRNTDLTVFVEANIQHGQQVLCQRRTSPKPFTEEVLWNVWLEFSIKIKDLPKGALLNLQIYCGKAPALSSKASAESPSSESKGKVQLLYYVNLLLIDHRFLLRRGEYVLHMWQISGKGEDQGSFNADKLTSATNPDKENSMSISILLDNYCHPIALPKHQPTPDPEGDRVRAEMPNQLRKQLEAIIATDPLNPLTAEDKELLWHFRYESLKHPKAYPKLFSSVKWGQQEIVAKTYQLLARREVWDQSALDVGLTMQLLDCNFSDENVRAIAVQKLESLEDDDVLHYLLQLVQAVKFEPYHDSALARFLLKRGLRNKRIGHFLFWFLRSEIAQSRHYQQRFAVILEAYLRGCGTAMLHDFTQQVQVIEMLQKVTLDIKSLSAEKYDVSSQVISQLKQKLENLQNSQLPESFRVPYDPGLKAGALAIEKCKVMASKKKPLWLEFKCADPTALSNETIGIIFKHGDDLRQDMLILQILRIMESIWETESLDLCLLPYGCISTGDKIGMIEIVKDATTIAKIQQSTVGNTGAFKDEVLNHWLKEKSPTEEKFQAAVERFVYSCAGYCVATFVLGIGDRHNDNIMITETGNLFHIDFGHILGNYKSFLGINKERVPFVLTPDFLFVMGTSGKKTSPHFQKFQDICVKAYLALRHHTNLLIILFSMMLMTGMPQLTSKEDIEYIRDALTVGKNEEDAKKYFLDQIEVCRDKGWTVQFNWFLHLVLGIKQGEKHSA

The term IC50 denotes the point on the concentration scale where inhibition reaches its midpoint. As for `Cn1cc(/C=C2\Oc3ccc(NC(=O)Nc4cccnc4)cc3C2=O)c2c(N3CCC(C(=O)N4CC5CCC4CO5)CC3)ccnc21` (stereo not drawn) [Compound 233, 1-[(2Z)-2-({1-methyl-4-[4-(2-oxa-5-azabicyclo[2.2.2]oct-5-ylcarbonyl)piperidin-1-yl]-1H-pyrrolo[2,3-b]pyridin-3-yl}methylidene)-3-oxo-2,3-dihydro-1-benzofuran-5-yl]-3-pyridin-3-ylurea], the IC50 at PI3Kα was determined as 196 nM; on PI3Kγ, 1730 nM; at mTOR it was 38 nM.
`Cn1cc(/C=C2\Oc3ccc(NC(=O)Nc4cccnc4)cc3C2=O)c2c(C(=O)N3CCCCC3)ccnc21` [Compound 234, 1-[(2Z)-2-{[1-methyl-4-(piperidin-1-ylcarbonyl)-1H-pyrrolo[2,3-b]pyridin-3-yl]methylidene}-3-oxo-2,3-dihydro-1-benzofuran-5-yl]-3-pyridin-3-ylurea]: the IC50 at PI3Kα is 253 nM; at PI3Kγ, 2500 nM; on mTOR it was > 4000 nM.
Taken in the same sequence, the figures for `CC(C)NC(=O)Nc1ccc2c(c1)C(=O)/C(=C/c1cn(C)c3nccc(N4CC5CCC(C4)O5)c13)O2` [Compound 235, 1-(1-methylethyl)-3-[(2Z)-2-{[1-methyl-4-(8-oxa-3-azabicyclo[3.2.1]oct-3-yl)-1H-pyrrolo[2,3-b]pyridin-3-yl]methylidene}-3-oxo-2,3-dihydro-1-benzofuran-5-yl]urea] were 845 nM, 2560 nM and 72 nM.
Taken in the same sequence, the figures for `C[C@H]1COCCN1c1ccnc2c1c(/C=C1\Oc3ccc(NC(=O)Nc4cccnc4)cc3C1=O)cn2C` [Compound 238, 1-[(2Z)-2-({1-methyl-4-[(3S)-3-methylmorpholin-4-yl]-1H-pyrrolo[2,3-b]pyridin-3-yl}methylidene)-3-oxo-2,3-dihydro-1-benzofuran-5-yl]-3-pyridin-3-ylurea] were 649 nM, 3640 nM and 130 nM.
Taken in the same sequence, the figures for `C[C@@H]1CN(C2CCN(c3ccnc4c3c(/C=C3\Oc5ccc(NC(=O)Nc6cccnc6)cc5C3=O)cn4C)CC2)C[C@H](C)O1` [Compound 239, 1-{(2Z)-2-[(4-{4-[(2R,6S)-2,6-dimethylmorpholin-4-yl]piperidin-1-yl}-1-methyl-1H-pyrrolo[2,3-b]pyridin-3-yl)methylidene]-3-oxo-2,3-dihydro-1-benzofuran-5-yl}-3-pyridin-3-ylurea] were 326 nM, 748 nM and 64 nM.
For `CCN(CCO)C(=O)c1ccc(-c2ccnc3c2c(/C=C2\Oc4cccc(O)c4C2=O)cn3C)cc1` [Compound 243, N-ethyl-N-(2-hydroxyethyl)-4-{3-[(Z)-(4-hydroxy-3-oxo-1-benzofuran-2(3H)-ylidene)methyl]-1-methyl-1H-pyrrolo[2,3-b]pyridin-4-yl}benzamide], the IC50 at PI3Kα worked out at 167 nM; on PI3Kγ it was 219 nM; at mTOR it was 90.5 nM.
The like results for `CCN(CC)C(=O)C1CCN(c2ccnc3c2c(/C=C2\Oc4ccc(NC(=O)Nc5cccnc5)cc4C2=O)cn3C)CC1` [Compound 244, N,N-diethyl-1-{1-methyl-3-[(Z)-{3-oxo-5-[(pyridin-3-ylcarbamoyl)amino]-1-benzofuran-2(3H)-ylidene}methyl]-1H-pyrrolo[2,3-b]pyridin-4-yl}piperidine-4-carboxamide] were, in that order, 308 nM, 3380 nM and 115 nM.
Turning to `Cn1cc(/C=C2\Oc3cccc(O)c3C2=O)c2c(-c3ccc(C(=O)N4CCC(O)C4)cc3)ccnc21` (stereo not drawn) [Compound 245, (2Z)-4-hydroxy-2-[(4-{4-[(3-hydroxypyrrolidin-1-yl)carbonyl]phenyl}-1-methyl-1H-pyrrolo[2,3-b]pyridin-3-yl)methylene]-1-benzofuran-3(2H)-one], the results for the IC50 at PI3Kα, on PI3Kγ and at mTOR were 29 nM, 54 nM and 1.4 nM, respectively.
Taken in the same sequence, the figures for `COCCN(C)C(=O)c1ccc(-c2ccnc3c2c(/C=C2\Oc4ccc(NC(=O)Nc5cccnc5)cc4C2=O)cn3C)cc1` [Compound 247, N-(2-methoxyethyl)-N-methyl-4-{1-methyl-3-[(Z)-{3-oxo-5-[(pyridin-3-ylcarbamoyl)amino]-1-benzofuran-2(3H)-ylidene}methyl]-1H-pyrrolo[2,3-b]pyridin-4-yl}benzamide] were 3300 nM, 484 nM and 30 nM.
Taken in the same sequence, the figures for `CONC(=O)c1ccc(-c2ccnc3c2c(/C=C2\Oc4ccc(NC(=O)Nc5cccnc5)cc4C2=O)cn3C)cc1` [Compound 248, N-methoxy-4-{1-methyl-3-[(Z)-{3-oxo-5-[(pyridin-3-ylcarbamoyl)amino]-1-benzofuran-2(3H)-ylidene}methyl]-1H-pyrrolo[2,3-b]pyridin-4-yl}benzamide] were 976 nM, 479 nM and 1650 nM.
Consider `COC1CCN(C(=O)c2ccc(-c3ccnc4c3c(/C=C3\Oc5cccc(O)c5C3=O)cn4C)cc2)C1` (stereo not drawn) [Compound 249, (2Z)-4-hydroxy-2-[(4-{4-[(3-methoxypyrrolidin-1-yl)carbonyl]phenyl}-1-methyl-1H-pyrrolo[2,3-b]pyridin-3-yl)methylene]-1-benzofuran-3(2H)-one], for which the IC50 is 20 nM on PI3Kα, 26 nM on PI3Kγ and 0.6 nM on mTOR.
Taken in the same sequence, the figures for `CN1CCN(C(=O)C2CCN(c3ccnc4c3c(/C=C3\Oc5ccc(NC(=O)Nc6cccnc6)cc5C3=O)cn4C)CC2)CC1` [Compound 252, 1-{(2Z)-2-[(1-methyl-4-{4-[(4-methylpiperazin-1-yl)carbonyl]piperidin-1-yl}-1H-pyrrolo[2,3-b]pyridin-3-yl)methylidene]-3-oxo-2,3-dihydro-1-benzofuran-5-yl}-3-pyridin-3-ylurea] were 4600 nM, 1250 nM and 7 nM.
As for `Cn1cc(/C=C2\Oc3ccc(NC(=O)Nc4cccnc4)cc3C2=O)c2c(N3CCC(C(=O)N4CCCC4)CC3)ccnc21` [Compound 253, 1-[(2Z)-2-({1-methyl-4-[4-(pyrrolidin-1-ylcarbonyl)piperidin-1-yl]-1H-pyrrolo[2,3-b]pyridin-3-yl}methylene)-3-oxo-2,3-dihydro-1-benzofuran-5-yl]-3-pyridin-3-ylurea], the IC50 at PI3Kα stood at 909 nM; at PI3Kγ, 661 nM; on mTOR it was 8.2 nM.
For the compound `Cn1cc(/C=C2\Oc3ccc(NC(=O)Nc4cccnc4)cc3C2=O)c2c(N3CCC(C(=O)NCCO)CC3)ccnc21` [Compound 254, N-(2-hydroxyethyl)-1-{1-methyl-3-[(Z)-{3-oxo-5-[(pyridin-3-ylcarbamoyl)amino]-1-benzofuran-2(3H)-ylidene}methyl]-1H-pyrrolo[2,3-b]pyridin-4-yl}piperidine-4-carboxamide], the results for the IC50 on PI3Kα, at PI3Kγ and on mTOR were 3330 nM, 1140 nM and 4.2 nM, respectively.
The like results for `Cn1cc(/C=C2\Oc3ccc(NC(=O)Nc4cccnc4)cc3C2=O)c2c(N3CCC(C(=O)N4CCCCC4)CC3)ccnc21` [Compound 258, 1-[(2Z)-2-({1-methyl-4-[4-(piperidin-1-ylcarbonyl)piperidin-1-yl]-1H-pyrrolo[2,3-b]pyridin-3-yl}methylene)-3-oxo-2,3-dihydro-1-benzofuran-5-yl]-3-pyridin-3-ylurea] were, in that order, 604 nM, 206 nM and 47.5 nM.
Taken in the same sequence, the figures for `COC1CCN(C(=O)c2ccc(-c3ccnc4c3c(/C=C3\Oc5ccc(NC(=O)Nc6cccnc6)cc5C3=O)cn4C)cc2)C1` (stereo not drawn) [Compound 259, 1-{(2Z)-2-[(4-{4-[(3-methoxypyrrolidin-1-yl)carbonyl]phenyl}-1-methyl-1H-pyrrolo[2,3-b]pyridin-3-yl)methylene]-3-oxo-2,3-dihydro-1-benzofuran-5-yl}-3-pyridin-3-ylurea] were 2060 nM, 529 nM and 17.5 nM.
Taken in the same sequence, the figures for `COCCNC(=O)C1CCN(c2ccnc3c2c(/C=C2\Oc4ccc(NC(=O)Nc5cccnc5)cc4C2=O)cn3C)CC1` [Compound 260, N-(2-methoxyethyl)-1-{1-methyl-3-[(Z)-{3-oxo-5-[(pyridin-3-ylcarbamoyl)amino]-1-benzofuran-2(3H)-ylidene}methyl]-1H-pyrrolo[2,3-b]pyridin-4-yl}piperidine-4-carboxamide] were 744 nM, 1920 nM and 8.4 nM.
On to `CN(C)CCNC(=O)C1CCN(c2ccnc3c2c(/C=C2\Oc4ccc(NC(=O)Nc5cccnc5)cc4C2=O)cn3C)CC1` [Compound 261, N-[2-(dimethylamino)ethyl]-1-{1-methyl-3-[(Z)-{3-oxo-5-[(pyridin-3-ylcarbamoyl)amino]-1-benzofuran-2(3H)-ylidene}methyl]-1H-pyrrolo[2,3-b]pyridin-4-yl}piperidine-4-carboxamide], for which the IC50 at PI3Kα is > 10000 nM; at PI3Kγ, 886 nM; at mTOR, 22.5 nM.
In the case of `CC1CN(C(=O)C2CCN(c3ccnc4c3c(/C=C3\Oc5ccc(NC(=O)Nc6cccnc6)cc5C3=O)cn4C)CC2)CC(C)O1` (stereo not drawn) [Compound 265, 1-{(2Z)-2-[(4-{4-[(2,6-dimethylmorpholin-4-yl)carbonyl]piperidin-1-yl}-1-methyl-1H-pyrrolo[2,3-b]pyridin-3-yl)methylene]-3-oxo-2,3-dihydro-1-benzofuran-5-yl}-3-pyridin-3-ylurea], the figures for the IC50 on PI3Kα, at PI3Kγ and at mTOR were 3750 nM, 1190 nM and 40.5 nM, respectively.
Take `CN(C)CCN(C)C(=O)C1CCN(c2ccnc3c2c(/C=C2\Oc4ccc(NC(=O)Nc5cccnc5)cc4C2=O)cn3C)CC1` [Compound 266, N-[2-(dimethylamino)ethyl]-N-methyl-1-{1-methyl-3-[(Z)-{3-oxo-5-[(pyridin-3-ylcarbamoyl)amino]-1-benzofuran-2(3H)-ylidene}methyl]-1H-pyrrolo[2,3-b]pyridin-4-yl}piperidine-4-carboxamide]: the IC50 at PI3Kα was > 10000 nM; on PI3Kγ, 1200 nM; on mTOR it was 42.5 nM.

The record behind these values is patent US20090298820A1, “3-SUBSTITUTED-1H-PYRROLO[2,3-B]PYRIDINE AND 3-SUBSTITUTED-1H-PYRROLO[3,2-B]PYRIDINE COMPOUNDS, THEIR USE AS MTOR KINASE AND PI3 KINASE INHIBITORS, AND THEIR SYNTHESES” (Wyeth, priority 2008, published 2009).
